Assay results reported in ChEMBL document CHEMBL5316331, “Modulating Cytotoxicity with Lego-like Chemistry: Upgrading Mitochondriotropic Antioxidants with Prototypical Cationic Carrier Bricks” (J Med Chem, 2023).
Active and inactive are the calls of the source. The calls are words filed in the database; no cut-off is given here.

Tests used:
SH-SY5Y [1] = test: Cytotoxicity against human SH-SY5Y cells assessed as decrease in cell mass at > 25 uM incubated for 24 hrs by SRB assay; type: toxicity, cell-based
HepG2 [2] = test: Cytotoxicity against human HepG2 cells assessed as decrease in cellular metabolic activity at > 3.1 uM incubated for 24 hrs by resazurin reduction assay; type: toxicity, cell-based; conditions: hepg2, 24 h
SH-SY5Y [3] = test: Effect on cell death pathway in human SH-SY5Y cells assessed as increase in late apoptotic cells at 50 uM incubated for 24 hrs by Annexin V-FITC/PI staining based microscopy; type: functional
SH-SY5Y [4] = test: Cytotoxicity against human SH-SY5Y cells assessed as decrease in lysosomal activity at > 50 uM incubated for 24 hrs by neutral red uptake assay; type: toxicity, cell-based
SH-SY5Y [5] = test: Neuroprotective activity against tBHP-induced human SH-SY5Y cells assessed as increase in cell viability at 10 uM preincubated for 30 mins followed by t-BHP addition at 15 uM and measured after 24 hrs by neutral dye uptake assay relative to control; type: functional; conditions: time 24.5 hrs
HepG2 [6] = test: Cytotoxicity against human HepG2 cells assessed as decrease in lysosomal activity at > 10 uM incubated for 24 hrs by resazurin reduction assay; type: toxicity, cell-based; conditions: hepg2, 24 h
[7] = Drug uptake in C57BL/6J mouse liver mitochondria at 5 uM in presence of rotenone by UPLC analysis; type: ADME
SH-SY5Y [8] = test: Antioxidant activity against human SH-SY5Y cells assessed as effect on ATP production-linked respiration at 10 uM incubated for 24 hrs followed by addition of oligomycin/FCCP/antimycin A /rotenone by Cell Mito stress assay based seahorse XF96 flux analyzer; type: functional
SH-SY5Y [9] = test: Cytotoxicity against human SH-SY5Y cells assessed as decrease in lysosomal activity at 1 to 100 uM incubated upto 48 hrs by resazurin reduction assay; type: toxicity, cell-based; conditions: dose 1-100 µM
SH-SY5Y [10] = test: Effect on cell death pathway in human SH-SY5Y cells assessed as increase in early apoptotic cells at 50 uM incubated for 24 hrs by Annexin V-FITC/PI staining based microscopy; type: functional
SH-SY5Y [11] = test: Effect on cell death pathway in human SH-SY5Y cells assessed as increase in early apoptotic cells at 10 uM incubated for 24 hrs by Annexin V-FITC/PI staining based microscopy; type: functional
SH-SY5Y [12] = test: Neuroprotective activity against tBHP-induced human SH-SY5Y cells assessed as increase in cell viability at 10 uM preincubated for 30 mins followed by t-BHP addition at 30 uM and measured after 24 hrs by neutral dye uptake assay relative to control; type: functional; conditions: time 24.5 hrs
HepG2 [13] = test: Cytotoxicity against human HepG2 cells assessed as decrease in cell mass at > 6.25 uM incubated for 24 hrs by SRB assay; type: toxicity, cell-based; conditions: hepg2, 24 h
SH-SY5Y [14] = test: Induction of mitochondrial membrane polarization in human SH-SY5Y cells at 10 uM incubated for 24 hrs by JC-1 staining based fluorescence assay; type: functional
SH-SY5Y [15] = test: Antioxidant activity against human SH-SY5Y cells assessed as increase in ECAR at 10 uM incubated for 24 hrs followed by addition of oligomycin/FCCP/antimycin A /rotenone by Cell Mito stress assay based seahorse XF96 flux analyzer; type: functional
SH-SY5Y [16] = test: Cytotoxicity against human SH-SY5Y cells assessed as decrease in lysosomal activity at > 25 uM incubated for 24 hrs by neutral red uptake assay; type: toxicity, cell-based
SH-SY5Y [17] = test: Effect on cell morphology in human SH-SY5Y cells assessed as reduction in cell body at 10 uM incubated for 24 hrs by Phase-contrast microscopy; type: functional, cell-based
HepG2 [18] = test: Cytotoxicity against human HepG2 cells assessed as decrease in lysosomal activity at > 3.1 uM incubated for 24 hrs by resazurin reduction assay; type: toxicity, cell-based; conditions: hepg2, 24 h
SH-SY5Y [19] = test: Antioxidant activity against human SH-SY5Y cells assessed as effect on intracellular ATP level at 10 uM incubated for 24 hrs followed by addition of oligomycin/FCCP/antimycin A /rotenone by Cell Mito stress assay based seahorse XF96 flux analyzer; type: functional
SH-SY5Y [20] = test: Induction of mitochondrial membrane polarization in human SH-SY5Y cells at 50 uM incubated for 24 hrs by JC-1 staining based fluorescence assay; type: functional
SH-SY5Y [21] = test: Neuroprotective activity against H2O2-induced human SH-SY5Y cells assessed as increase in cell viability at 10 uM preincubated for 30 mins followed by H2O2 addition and measured after 24 hrs by SRB assay; type: functional, cell-based; conditions: time 24.5 hrs
SH-SY5Y [22] = test: Effect on cell mitochondrial mass in human SH-SY5Y cells assessed as reduction on mitochondrial mass at 10 uM incubated for 24 hrs by mito-tracker green dye based flow cytometry; type: functional; set-up: scale not given: the % may be the effect or the level left
[23] = Drug uptake in C57BL/6J mouse liver mitochondria at 5 uM in presence of FCCP by UPLC analysis; type: ADME
SH-SY5Y [24] = test: Cytotoxicity against human SH-SY5Y cells assessed as decrease in cellular metabolic activity at 1 to 100 uM incubated upto 48 hrs by resazurin reduction assay; type: toxicity, cell-based; conditions: dose 1-100 µM
HepG2 [25] = test: Cytotoxicity against human HepG2 cells assessed as decrease in cellular metabolic activity at > 10 uM incubated for 24 hrs by resazurin reduction assay; type: toxicity, cell-based; conditions: hepg2, 24 h
SH-SY5Y [26] = test: Effect on cell morphology in human SH-SY5Y cells assessed as reduction in neurite at 10 uM incubated for 24 hrs by Phase-contrast microscopy; type: functional, cell-based
SH-SY5Y [27] = test: Effect on cell morphology in human SH-SY5Y cells assessed as reduction in cell body at 50 uM incubated for 24 hrs by Phase-contrast microscopy; type: functional, cell-based
SH-SY5Y [28] = test: Effect on cell death pathway in human SH-SY5Y cells assessed as increase in late apoptotic cells at 10 uM incubated for 24 hrs by Annexin V-FITC/PI staining based microscopy; type: functional
SH-SY5Y [29] = test: Effect on cell death pathway in human SH-SY5Y cells assessed as increase in necrotic cells at 10 uM incubated for 24 hrs by Annexin V-FITC/PI staining based microscopy; type: functional
SH-SY5Y [30] = test: Effect on cell morphology in human SH-SY5Y cells assessed as reduction in neurite at 50 uM incubated for 24 hrs by Phase-contrast microscopy; type: functional, cell-based
SH-SY5Y [31] = test: Antioxidant activity against human SH-SY5Y cells assessed as increase in proton leak-associated respiration at 10 uM incubated for 24 hrs followed by addition of oligomycin/FCCP/antimycin A /rotenone by Cell Mito stress assay based seahorse XF96 flux analyzer; type: functional
[32] = Dissociation constant, pKa of the compound by UV-vis spectrophotometric analysis; type: physicochemical
[33] = Drug uptake in C57BL/6J mouse liver mitochondria at 5 uM in presence of succinate by UPLC analysis; type: ADME
SH-SY5Y [34] = test: Neuroprotective activity against tBHP-induced human SH-SY5Y cells assessed as increase in cell viability at 10 uM preincubated for 30 mins followed by t-BHP addition and measured after 24 hrs by SRB assay; type: functional, cell-based; conditions: time 24.5 hrs
SH-SY5Y [35] = test: Effect on cell death pathway in human SH-SY5Y cells assessed as increase in necrotic cells at 50 uM incubated for 24 hrs by Annexin V-FITC/PI staining based microscopy; type: functional

For CS(=O)(=O)[O-].O=C(/C=C/c1ccc(O)c(O)c1)NCCCCCCCCCC[P+](c1ccccc1)(c1ccccc1)c1ccccc1, the Activity (SH-SY5Y [1]) was “Toxic”, the Activity (HepG2 [2]) was “Toxic” and the Activity (SH-SY5Y [3]) was “Active”. For the same molecule, the Activity (SH-SY5Y [4]) was “Toxic”, the Activity (SH-SY5Y [5]) was 95.1% and the Activity (HepG2 [6]) was “Toxic”. The Drug uptake [7] was “Not Active”, the Activity (SH-SY5Y [8]) was “inactive” and the Activity (SH-SY5Y [9]) was “Toxic”. For the same molecule, the Activity (SH-SY5Y [10]) was “Active”, the Activity (SH-SY5Y [11]) was “Active” and the Activity (SH-SY5Y [12]) was 54.9%. The Activity (HepG2 [13]) was “Toxic”, the Activity (SH-SY5Y [14]) was 124.8% and the Activity (SH-SY5Y [15]) was “Active”. For the same molecule, the Activity (SH-SY5Y [16]) was “Toxic”, the Activity (SH-SY5Y [17]) was “Active” and the Activity (HepG2 [18]) was “Toxic”. The Activity (SH-SY5Y [19]) was “inactive”, the Activity (SH-SY5Y [20]) was 72.7% and the Activity (SH-SY5Y [21]) was “inactive”. The Activity (SH-SY5Y [22]) was 69.2%, the Drug uptake [23] was “Active” and the Activity (SH-SY5Y [24]) was “Toxic”. For the same molecule, the Activity (HepG2 [25]) was “Toxic”, the Activity (SH-SY5Y [26]) was “Active” and the Activity (SH-SY5Y [27]) was “Active”. For the same molecule, the Activity (SH-SY5Y [28]) was “Active”, the Activity (SH-SY5Y [29]) was “Active” and the Activity (SH-SY5Y [30]) was “Active”. For the same molecule, the Activity (SH-SY5Y [31]) was “Active”, the pKa [32] was 8.61 and the Drug uptake [33] was ~ 25%. The Activity (SH-SY5Y [34]) was “Active” and the Activity (SH-SY5Y [35]) was “Active”.
